In US20240352066A1, “ANTIMICROBIAL COMPOUNDS AND THE METHOD OF USE” (priority 2021, published 2024):
Converted amounts (≈) assume the structure as drawn. Read-outs that look alike come from different tables or passages of the source. Where a SMILES comes first, the peptide text is derived from it. [ ]: non-standard residue; d: D form. N(tridecyl)Gly = CCCCCCCCCCCCCNCC(=O)O; Gly(N-2-aminoethyl) = NCCNCC(=O)O; Gly(N-cHex) = O=C(O)CNC1CCCCC1; Nleu = CC(C)CNCC(=O)O; Nlys = NCCCCNCC(=O)O

Experiments:
C. neoformans = assay type: cell-based, Cryptococcus neoformans; settings: 72 h
[1] = Mammalian cytotoxicity, MTT, HepG2; assay type: cell-based, human; settings: human, HepG2 hepatocellular carcinoma cells
Method in brief: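 HepG2 cells (1×10^5 cells/mL, phenol-red-free DMEM, 10% FBS) were exposed to 2-fold dilutions of compound at 1.56–200 μg/mL final, in triplicate, for 72 h at 37 °C, 5% CO2. MTT was added for 3 h and, after DMSO solubilization, absorbance was read at 570 nm. TD50 is the concentration giving a 50% growth reduction versus the water vehicle, reported as the mean of biological replicates ± SD.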

Row | Compound | C. neoformans MIC (C. neoformans) [µg/mL] | CC50 at 72 h [1] [µg/mL] | MIC C. neoformans (C. neoformans) [µg/mL] | CC50 at 72 h ([1]; Example 1, 72 hours, MTT, read-out: TD50 HepG2) [µg/mL]
1 | CCCCCCCCCCCCCNCC(=O)N(CC(=O)N(CCCCN)CC(=O)N(CCN)CC(=O)N(CC(N)=O)CC(C)C)CC(C)C [Compound 9] (H-[N(tridecyl)Gly][Nleu][Nlys][Gly(N-2-aminoethyl)][Nleu]-NH2) | 3.13 | 167 ± 75 (≈ 235 µM) |  | 
2 | CCCCCCCCCCCCCNCC(=O)N(CC(=O)N(CCCCN)CC(=O)N(CCN)CC(=O)N(CC(N)=O)C1CCCCC1)C1CCCCC1 [RMG8-8, Ntri-Ncha-Nlys-Nae-Ncha] (H-[N(tridecyl)Gly][Gly(N-cHex)][Nlys][Gly(N-2-aminoethyl)][Gly(N-cHex)]-NH2) |  |  | 1.6 (≈ 2.1 µM) | 189 ± 43 (≈ 248 µM)
